How the values were obtained:
[1] = GPCRScan assay: inhibition of GABA/PBR; design: species or system Rattus norvegicus; radioligand conc. used [nm] 0.3 – 2.0, parental cells brain tissue
[2] = target: Prostaglandin G/H synthase 2 (Homo sapiens) (UniProt P35354); assay: COX2(h) Eurofins-Cerep enzyme and uptake assay; conditions: Compound concentration 10.0 uM
[3] = target: Type-1 angiotensin II receptor (Homo sapiens) (UniProt P30556); assay: AT1 (h) Eurofins-Cerep binding assay; design: ligand concentration 0.05 nM; conditions: filed as antagonist, Compound concentration 10.0 uM
[4] = target: T1, GABA-A receptor; anion channel (Rattus norvegicus) (UniProt O09028+P15431+P18506+P18508+P19969+P20236+P23574+P23576+P28471+P28473+P30191+P62813+P63079+P63138+Q91ZM7+Q9ES14); assay: BZD (central) Eurofins-Cerep binding assay; format: protein-complex assay; design: ligand concentration 0.4 nM; conditions: filed as agonist, Compound concentration 10.0 uM
[5] = target: T2, 5-hydroxytryptamine receptor 2C (Homo sapiens) (UniProt P28335); assay: 5-HT2C (h) Eurofins-Cerep binding assay; design: ligand concentration 1 nM; conditions: filed as antagonist, Compound concentration 10.0 uM
T2 sequence (whole entry): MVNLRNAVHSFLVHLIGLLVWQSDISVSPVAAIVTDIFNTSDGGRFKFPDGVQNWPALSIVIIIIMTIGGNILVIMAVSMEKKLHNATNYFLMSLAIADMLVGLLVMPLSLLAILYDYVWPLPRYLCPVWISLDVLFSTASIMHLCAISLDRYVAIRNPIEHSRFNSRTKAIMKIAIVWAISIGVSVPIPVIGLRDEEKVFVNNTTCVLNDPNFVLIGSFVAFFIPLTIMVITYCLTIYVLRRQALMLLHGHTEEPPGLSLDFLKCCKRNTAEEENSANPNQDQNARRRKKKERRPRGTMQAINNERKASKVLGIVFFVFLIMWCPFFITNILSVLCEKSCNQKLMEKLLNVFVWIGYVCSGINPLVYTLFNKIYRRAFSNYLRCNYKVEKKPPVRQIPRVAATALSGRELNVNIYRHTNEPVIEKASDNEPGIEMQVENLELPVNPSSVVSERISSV

[6] = target: Glucocorticoid receptor (Homo sapiens) (UniProt P04150); assay: GR (h) Eurofins-Cerep binding assay; design: ligand concentration 1.5 nM; conditions: filed as agonist, Compound concentration 10.0 uM
[7] = target: Androgen receptor (Homo sapiens) (UniProt P10275); assay: AR (h) Eurofins-Cerep binding assay; design: ligand concentration 1 nM; conditions: filed as agonist, Compound concentration 10.0 uM
[8] = target: Activin receptor type-1 (Homo sapiens) (UniProt Q04771); conditions: Compound concentration 1000.0 nM
[9] = target: BMP-2-inducible protein kinase (Homo sapiens) (UniProt Q9NSY1); conditions: Compound concentration 1000.0 nM
[10] = target: Dual specificity protein kinase CLK3 (Homo sapiens) (UniProt P49761); conditions: Compound concentration 1000.0 nM
Dual specificity protein kinase CLK3 (Homo sapiens), sequence (P49761 whole entry, looked up): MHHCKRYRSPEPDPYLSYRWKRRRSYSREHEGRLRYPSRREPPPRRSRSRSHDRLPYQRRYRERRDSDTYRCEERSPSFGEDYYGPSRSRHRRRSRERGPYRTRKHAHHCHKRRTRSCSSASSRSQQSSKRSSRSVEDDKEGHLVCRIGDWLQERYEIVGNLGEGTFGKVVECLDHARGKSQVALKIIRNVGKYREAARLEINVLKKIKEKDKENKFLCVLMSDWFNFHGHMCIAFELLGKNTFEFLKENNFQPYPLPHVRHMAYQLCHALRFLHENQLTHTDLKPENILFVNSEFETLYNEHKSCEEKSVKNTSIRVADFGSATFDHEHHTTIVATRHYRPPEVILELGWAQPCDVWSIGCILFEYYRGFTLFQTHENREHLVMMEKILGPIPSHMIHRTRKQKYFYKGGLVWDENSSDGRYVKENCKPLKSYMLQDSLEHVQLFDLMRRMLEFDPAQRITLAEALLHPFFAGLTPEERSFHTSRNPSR

[11] = target: Ephrin type-A receptor 3 (Homo sapiens) (UniProt P29320); conditions: Compound concentration 1000.0 nM
[12] = target: Mitogen-activated protein kinase kinase kinase kinase 1 (Homo sapiens) (UniProt Q92918); conditions: Compound concentration 1000.0 nM
[13] = target: Insulin-like growth factor 1 receptor (Homo sapiens) (UniProt P08069); conditions: Compound concentration 1000.0 nM
[14] = target: Mitogen-activated protein kinase 8 (Homo sapiens) (UniProt P45983); conditions: Compound concentration 1000.0 nM
Mitogen-activated protein kinase 8 (Homo sapiens), sequence (P45983 whole entry): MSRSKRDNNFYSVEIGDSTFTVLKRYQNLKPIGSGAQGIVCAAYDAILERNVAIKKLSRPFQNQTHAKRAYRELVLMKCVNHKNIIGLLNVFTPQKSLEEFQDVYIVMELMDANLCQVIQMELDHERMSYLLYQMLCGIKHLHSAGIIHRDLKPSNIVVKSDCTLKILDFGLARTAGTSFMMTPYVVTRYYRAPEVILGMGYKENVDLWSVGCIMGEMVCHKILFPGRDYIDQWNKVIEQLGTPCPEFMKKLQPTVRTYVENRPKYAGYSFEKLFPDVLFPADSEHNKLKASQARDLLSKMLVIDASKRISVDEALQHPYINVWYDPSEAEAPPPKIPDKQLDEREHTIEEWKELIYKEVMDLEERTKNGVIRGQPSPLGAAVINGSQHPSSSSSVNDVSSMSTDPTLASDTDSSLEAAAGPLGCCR

[15] = target: Mitogen-activated protein kinase kinase kinase kinase 4 (Homo sapiens) (UniProt O95819); conditions: Compound concentration 1000.0 nM
Mitogen-activated protein kinase kinase kinase kinase 4 (Homo sapiens), sequence (O95819 2-1239 limits assumed): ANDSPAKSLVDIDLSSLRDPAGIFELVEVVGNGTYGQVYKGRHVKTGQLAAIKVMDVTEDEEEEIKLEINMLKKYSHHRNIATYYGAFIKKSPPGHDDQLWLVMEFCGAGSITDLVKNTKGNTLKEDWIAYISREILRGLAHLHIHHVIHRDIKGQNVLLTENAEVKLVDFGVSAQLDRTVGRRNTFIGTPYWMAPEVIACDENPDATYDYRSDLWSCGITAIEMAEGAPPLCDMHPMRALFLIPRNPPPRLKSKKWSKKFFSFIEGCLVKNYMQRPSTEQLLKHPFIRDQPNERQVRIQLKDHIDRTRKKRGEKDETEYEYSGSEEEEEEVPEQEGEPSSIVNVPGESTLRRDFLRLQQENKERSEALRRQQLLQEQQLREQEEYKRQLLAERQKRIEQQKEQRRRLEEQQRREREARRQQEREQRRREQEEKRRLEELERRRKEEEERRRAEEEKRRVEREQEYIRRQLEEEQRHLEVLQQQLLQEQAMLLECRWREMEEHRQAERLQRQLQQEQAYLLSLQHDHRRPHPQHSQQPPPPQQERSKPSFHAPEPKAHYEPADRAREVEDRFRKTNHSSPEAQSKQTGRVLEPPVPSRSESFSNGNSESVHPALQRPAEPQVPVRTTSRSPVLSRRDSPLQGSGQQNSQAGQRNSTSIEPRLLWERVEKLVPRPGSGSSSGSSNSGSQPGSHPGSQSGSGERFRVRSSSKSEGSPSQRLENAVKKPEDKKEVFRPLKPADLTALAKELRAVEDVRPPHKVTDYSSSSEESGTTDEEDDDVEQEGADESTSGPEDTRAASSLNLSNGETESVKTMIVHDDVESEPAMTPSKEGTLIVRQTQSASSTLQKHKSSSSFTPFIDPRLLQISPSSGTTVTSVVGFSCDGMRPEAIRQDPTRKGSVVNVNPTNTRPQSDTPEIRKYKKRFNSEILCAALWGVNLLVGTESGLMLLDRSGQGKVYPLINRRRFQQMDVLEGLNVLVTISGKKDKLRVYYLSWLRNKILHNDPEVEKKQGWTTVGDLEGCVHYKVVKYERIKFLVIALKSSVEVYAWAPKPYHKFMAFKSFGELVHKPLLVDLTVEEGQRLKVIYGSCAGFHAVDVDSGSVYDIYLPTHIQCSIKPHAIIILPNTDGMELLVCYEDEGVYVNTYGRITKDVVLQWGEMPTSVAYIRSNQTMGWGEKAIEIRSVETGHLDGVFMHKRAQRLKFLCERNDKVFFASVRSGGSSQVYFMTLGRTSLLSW

[16] = target: Serine/threonine-protein kinase MARK1 (Homo sapiens) (UniProt Q9P0L2); conditions: Compound concentration 1000.0 nM
[17] = target: Dual specificity mitogen-activated protein kinase kinase 3 (Homo sapiens) (UniProt P46734); conditions: Compound concentration 1000.0 nM
Dual specificity mitogen-activated protein kinase kinase 3 (Homo sapiens), sequence (P46734 whole entry): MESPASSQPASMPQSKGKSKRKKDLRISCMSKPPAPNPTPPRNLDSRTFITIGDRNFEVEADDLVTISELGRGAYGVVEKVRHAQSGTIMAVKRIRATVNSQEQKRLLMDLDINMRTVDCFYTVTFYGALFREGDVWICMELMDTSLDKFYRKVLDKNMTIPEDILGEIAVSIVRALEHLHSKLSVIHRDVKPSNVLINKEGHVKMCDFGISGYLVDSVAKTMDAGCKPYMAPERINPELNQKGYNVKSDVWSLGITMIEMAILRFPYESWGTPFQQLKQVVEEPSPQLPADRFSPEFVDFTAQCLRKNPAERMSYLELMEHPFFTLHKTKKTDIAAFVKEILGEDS

[18] = target: Serine/threonine-protein kinase 3 (Homo sapiens) (UniProt Q13188); conditions: Compound concentration 1000.0 nM
[19] = target: Mitogen-activated protein kinase 11 (Homo sapiens) (UniProt Q15759); conditions: Compound concentration 1000.0 nM
[20] = target: Protein kinase C theta type (Homo sapiens) (UniProt Q04759); conditions: Compound concentration 1000.0 nM
[21] = target: Serine/threonine-protein kinase RIO2 (Homo sapiens) (UniProt Q9BVS4); conditions: Compound concentration 1000.0 nM
[22] = target: Serine/threonine-protein kinase RIO3 (Homo sapiens) (UniProt O14730); conditions: Compound concentration 1000.0 nM
[23] = target: Receptor-interacting serine/threonine-protein kinase 2 (Homo sapiens) (UniProt O43353); conditions: Compound concentration 1000.0 nM
Receptor-interacting serine/threonine-protein kinase 2 (Homo sapiens), sequence (O43353 whole entry): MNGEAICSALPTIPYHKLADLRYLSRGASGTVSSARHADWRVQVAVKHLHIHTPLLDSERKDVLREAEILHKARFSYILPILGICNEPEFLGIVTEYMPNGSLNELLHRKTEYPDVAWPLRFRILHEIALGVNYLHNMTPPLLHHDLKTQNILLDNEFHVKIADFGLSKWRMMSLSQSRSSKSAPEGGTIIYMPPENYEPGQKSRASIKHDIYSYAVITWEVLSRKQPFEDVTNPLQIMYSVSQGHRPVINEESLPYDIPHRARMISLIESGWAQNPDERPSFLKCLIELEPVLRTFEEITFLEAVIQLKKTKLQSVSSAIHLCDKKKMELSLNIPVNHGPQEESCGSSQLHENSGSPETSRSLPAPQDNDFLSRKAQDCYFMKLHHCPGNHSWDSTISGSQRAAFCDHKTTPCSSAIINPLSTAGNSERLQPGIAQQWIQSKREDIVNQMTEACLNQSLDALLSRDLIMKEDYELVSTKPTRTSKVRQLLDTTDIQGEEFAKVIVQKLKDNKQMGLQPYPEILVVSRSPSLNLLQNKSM

[24] = target: Dual serine/threonine and tyrosine protein kinase (Homo sapiens) (UniProt Q6XUX3); conditions: Compound concentration 1000.0 nM
Dual serine/threonine and tyrosine protein kinase (Homo sapiens), sequence (Q6XUX3 whole entry): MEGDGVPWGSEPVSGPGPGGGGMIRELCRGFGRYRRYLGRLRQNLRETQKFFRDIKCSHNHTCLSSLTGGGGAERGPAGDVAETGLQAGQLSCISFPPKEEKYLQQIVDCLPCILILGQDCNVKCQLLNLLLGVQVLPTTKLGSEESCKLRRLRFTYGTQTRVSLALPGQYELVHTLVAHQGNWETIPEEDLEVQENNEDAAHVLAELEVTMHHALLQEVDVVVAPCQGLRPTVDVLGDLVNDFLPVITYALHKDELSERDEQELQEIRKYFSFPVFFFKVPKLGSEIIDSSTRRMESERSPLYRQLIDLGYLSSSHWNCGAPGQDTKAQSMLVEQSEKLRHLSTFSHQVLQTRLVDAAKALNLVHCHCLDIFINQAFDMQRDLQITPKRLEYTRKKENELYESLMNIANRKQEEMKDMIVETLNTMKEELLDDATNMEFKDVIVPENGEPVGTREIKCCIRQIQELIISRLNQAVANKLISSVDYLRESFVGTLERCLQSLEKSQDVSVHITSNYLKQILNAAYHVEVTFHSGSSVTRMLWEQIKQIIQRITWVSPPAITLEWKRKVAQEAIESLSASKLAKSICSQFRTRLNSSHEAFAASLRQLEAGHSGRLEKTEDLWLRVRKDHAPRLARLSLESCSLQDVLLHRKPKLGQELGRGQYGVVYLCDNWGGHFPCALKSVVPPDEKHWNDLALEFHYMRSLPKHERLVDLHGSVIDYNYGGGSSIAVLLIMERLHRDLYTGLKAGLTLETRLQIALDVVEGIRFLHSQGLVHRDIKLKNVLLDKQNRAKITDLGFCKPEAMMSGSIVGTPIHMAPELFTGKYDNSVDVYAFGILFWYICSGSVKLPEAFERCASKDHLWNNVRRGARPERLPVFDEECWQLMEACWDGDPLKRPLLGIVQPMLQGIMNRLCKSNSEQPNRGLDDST

[25] = target: Ribosomal protein S6 kinase alpha-4 (Homo sapiens) (UniProt O75676); conditions: Compound concentration 1000.0 nM
Ribosomal protein S6 kinase alpha-4 (Homo sapiens), sequence (O75676 whole entry, looked up): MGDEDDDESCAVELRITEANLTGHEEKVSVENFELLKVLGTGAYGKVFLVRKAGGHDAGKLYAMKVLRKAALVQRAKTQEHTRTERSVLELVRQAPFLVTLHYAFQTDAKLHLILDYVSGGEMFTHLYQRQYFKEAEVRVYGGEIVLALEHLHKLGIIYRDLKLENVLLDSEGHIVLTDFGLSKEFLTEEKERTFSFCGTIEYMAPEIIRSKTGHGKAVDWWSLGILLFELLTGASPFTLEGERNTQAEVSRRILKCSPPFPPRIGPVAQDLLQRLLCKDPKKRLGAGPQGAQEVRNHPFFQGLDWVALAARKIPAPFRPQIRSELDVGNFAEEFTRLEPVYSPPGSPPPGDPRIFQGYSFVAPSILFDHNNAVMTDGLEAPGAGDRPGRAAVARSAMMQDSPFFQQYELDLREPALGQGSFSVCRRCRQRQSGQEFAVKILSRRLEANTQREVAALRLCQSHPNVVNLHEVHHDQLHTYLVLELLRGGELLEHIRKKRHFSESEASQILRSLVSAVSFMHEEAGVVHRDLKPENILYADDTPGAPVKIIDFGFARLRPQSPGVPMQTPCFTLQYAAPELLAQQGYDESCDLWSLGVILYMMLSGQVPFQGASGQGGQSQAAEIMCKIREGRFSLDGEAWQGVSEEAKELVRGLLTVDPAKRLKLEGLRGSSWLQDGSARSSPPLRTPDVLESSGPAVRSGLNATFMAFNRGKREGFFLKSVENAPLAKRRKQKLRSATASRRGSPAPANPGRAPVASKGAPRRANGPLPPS

[26] = target: Ribosomal protein S6 kinase alpha-6 (Homo sapiens) (UniProt Q9UK32); conditions: Compound concentration 1000.0 nM
[27] = target: Tyrosine-protein kinase receptor TYRO3 (Homo sapiens) (UniProt Q06418); conditions: Compound concentration 1000.0 nM
[28] = target: T1, GABA-A receptor; anion channel (Rattus norvegicus); conditions: Compound concentration 10.0 uM
[29] = target: T3, Alpha-2B adrenergic receptor (Homo sapiens) (UniProt P18089); conditions: Compound concentration 10.0 uM
T3 sequence (whole entry): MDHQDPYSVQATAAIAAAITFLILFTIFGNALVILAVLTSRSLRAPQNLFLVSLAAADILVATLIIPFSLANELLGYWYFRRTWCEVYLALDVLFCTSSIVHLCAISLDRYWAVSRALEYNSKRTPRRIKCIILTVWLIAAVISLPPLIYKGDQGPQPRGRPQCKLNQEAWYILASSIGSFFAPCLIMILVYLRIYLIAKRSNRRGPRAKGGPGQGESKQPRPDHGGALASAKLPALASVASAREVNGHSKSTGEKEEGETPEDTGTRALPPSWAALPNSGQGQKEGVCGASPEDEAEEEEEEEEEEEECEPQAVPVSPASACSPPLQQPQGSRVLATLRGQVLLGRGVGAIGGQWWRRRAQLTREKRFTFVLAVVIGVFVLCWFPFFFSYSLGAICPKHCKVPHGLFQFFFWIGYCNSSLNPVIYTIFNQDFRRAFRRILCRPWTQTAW

[30] = target: Sigma intracellular receptor 2 (Homo sapiens, UniProt Q5BJF2); conditions: Compound concentration 10.0 uM
Sigma intracellular receptor 2, sequence (Q5BJF2 whole entry): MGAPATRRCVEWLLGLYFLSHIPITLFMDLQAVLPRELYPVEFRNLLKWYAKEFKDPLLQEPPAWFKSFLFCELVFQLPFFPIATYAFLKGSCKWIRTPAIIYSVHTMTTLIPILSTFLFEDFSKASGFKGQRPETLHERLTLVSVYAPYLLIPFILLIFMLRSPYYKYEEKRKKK

COc1ccc2c(c1)O[C@@H](c1ccc(OC)c(OC)c1)C[C@H]2NC(=O)C1(c2ccc3c(c2)OC(F)(F)O3)CC1 [A-1596586]
Ki [1]: 0.0196 µM | pKi [1]: 7.71 | % Inhibition of Control Values (Mean n=2) [2]: -9.3% | % Inhibition of Control Specific Binding (Mean n=2) [3]: -1.1% | % Inhibition of Control Specific Binding (Mean n=2) [4]: -12.3% | % Inhibition of Control Specific Binding (Mean n=2) [5]: 6.4% | % Inhibition of Control Specific Binding (Mean n=2) [6]: 22.1% | % Inhibition of Control Specific Binding (Mean n=2) [7]: 7.1% | residual activity [8]: 100% | residual activity [9]: 100% | residual activity [10]: 100% | residual activity [11]: 91% | residual activity [12]: 90% | residual activity [13]: 90% | residual activity [14]: 91% | residual activity [15]: 100% | residual activity [16]: 100% | residual activity [17]: 78% | residual activity [18]: 96% | residual activity [19]: 92% | residual activity [20]: 98% | residual activity [21]: 100% | residual activity [22]: 100% | residual activity [23]: 94% | residual activity [24]: 76% | residual activity [25]: 81% | residual activity [26]: 84% | residual activity [27]: 97% | inhibition [28]: 2.64% | inhibition [29]: 37.5% | inhibition [30]: 85.8%

COc1ccc2c(c1)O[C@H](c1ccc(OC)c(OC)c1)C[C@@H]2NC(=O)C1(c2ccc3c(c2)OC(F)(F)O3)CC1 [A-1596584]
Ki [1]: 0.218 µM | pKi [1]: 6.66 | % Inhibition of Control Values (Mean n=2) [2]: -17.9% | % Inhibition of Control Specific Binding (Mean n=2) [3]: 12.3% | % Inhibition of Control Specific Binding (Mean n=2) [4]: -49.6% | % Inhibition of Control Specific Binding (Mean n=2) [5]: 1.2% | % Inhibition of Control Specific Binding (Mean n=2) [6]: 13.7% | % Inhibition of Control Specific Binding (Mean n=2) [7]: -3.6% | residual activity [8]: 98% | residual activity [9]: 100% | residual activity [10]: 100% | residual activity [11]: 100% | residual activity [12]: 98% | residual activity [13]: 98% | residual activity [14]: 96% | residual activity [15]: 100% | residual activity [16]: 79% | residual activity [17]: 100% | residual activity [18]: 100% | residual activity [19]: 93% | residual activity [20]: 100% | residual activity [21]: 100% | residual activity [22]: 100% | residual activity [23]: 100% | residual activity [24]: 94% | residual activity [25]: 100% | residual activity [26]: 87% | residual activity [27]: 97% | inhibition [28]: 11.1% | inhibition [29]: 19.6% | inhibition [30]: 85.3%

Source: ChEMBL document CHEMBL4507262, “Data for DCP probe A-1596586” (2021)
